Source: the supplement of paper PMC4862054
Values joined by “and” are separate entries in the source; they are usually repeats but may differ in a detail not shown here. Identical values can stand only once.

Tests used:
Experiment in all cases: normalised viability (% of control), CellTiter-Blue; higher = more viable cells (about 100 = DMSO control)
Settings in all cases: incubation time: 72 h
CAL-51 [1] = test system: CAL-51
Description: (§1)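 DSRT, CellTiter-Blue viability, 72 h incubation. Signal is normalised to DMSO and benzethonium chloride controls. Value is the normalised response at dose 8.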

CAL-148 [2] = test system: CAL-148
Description: as §1

CAL-85-1 [3] = test system: CAL-85-1
Description: as §1

DU-4475 [4] = test system: DU-4475
Description: as §1

MDA-MB-453 [5] = test system: MDA-MB-453
Description: as §1

HDQ-P1 [6] = test system: HDQ-P1
Description: as §1

CAL-51 [7] = test system: CAL-51; remark: listed apart in the source
Description: (§2)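 DSRT, CellTiter-Blue viability, 72 h incubation. Signal is normalised to DMSO and benzethonium chloride controls. Value is the normalised response at dose 6.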

CAL-148 [8] = test system: CAL-148; remark: listed apart in the source
Description: as §2

CAL-85-1 [9] = test system: CAL-85-1; remark: listed apart in the source
Description: as §2

DU-4475 [10] = test system: DU-4475; remark: listed apart in the source
Description: as §2

MDA-MB-453 [11] = test system: MDA-MB-453; remark: listed apart in the source
Description: as §2

HDQ-P1 [12] = test system: HDQ-P1; remark: listed apart in the source
Description: as §2

CAL-51 [13] = test system: CAL-51; remark: listed apart in the source
Description: (§3)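 DSRT, CellTiter-Blue viability, 72 h incubation. Signal is normalised to DMSO and benzethonium chloride controls. Value is the normalised response at dose 7.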

CAL-148 [14] = test system: CAL-148; remark: listed apart in the source
Description: as §3

CAL-85-1 [15] = test system: CAL-85-1; remark: listed apart in the source
Description: as §3

DU-4475 [16] = test system: DU-4475; remark: listed apart in the source
Description: as §3

MDA-MB-453 [17] = test system: MDA-MB-453; remark: listed apart in the source
Description: as §3

HDQ-P1 [18] = test system: HDQ-P1; remark: listed apart in the source
Description: as §3

| SMILES | normalised viability (CAL-51 [1]) | normalised viability (CAL-148 [2]) | normalised viability (CAL-85-1 [3]) | normalised viability (DU-4475 [4]) | normalised viability (MDA-MB-453 [5]) | normalised viability (HDQ-P1 [6]) | also measured |
| --- | --- | --- | --- | --- | --- | --- | --- |
| CN1CCN(c2nc(C3=C(c4c[nH]c5ccccc45)C(=O)NC3=O)c3ccccc3n2)CC1 [Sotrastaurin] (3000 nM) | 97.3% | 116% | 141% | 95.9% | 93.8% | 126% |  |
| NC(=O)NO [Hydroxyurea] (30000 nM) | 111% | 103% | 89.1% | 104% | 93.1% | 104% |  |
| O=C(O)CC[C@H]1CC[C@@](c2cc(F)ccc2F)(S(=O)(=O)c2ccc(Cl)cc2)CC1 [MK-0752] (300 nM) | 119% | 95.3% | 94.6% | 115% | 114% | 114% |  |
| CO[C@H]1C[C@@H]2CC[C@@H](C)[C@@](O)(O2)C(=O)C(=O)N2CCCC[C@H]2C(=O)O[C@H]([C@H](C)C[C@@H]2CC[C@@H](O)[C@H](OC)C2)CC(=O)[C@H](C)/C=C(\C)[C@@H](O)[C@@H](OC)C(=O)[C@H](C)C[C@H](C)/C=C/C=C/C=C/1C [Sirolimus] (30 nM) |  |  |  |  |  |  | normalised viability (CAL-51 [7]): 29.3%; normalised viability (CAL-148 [8]): 46.8%; normalised viability (CAL-85-1 [9]): 56.1%; normalised viability (DU-4475 [10]): 48.5%; normalised viability (MDA-MB-453 [11]): 29%; normalised viability (HDQ-P1 [12]): 60.8% |
| N[C@@H](Cc1ccc(N(CCCl)CCCl)cc1)C(=O)O [Melphalan] (297 nM) | 106% | 100% | 97.9% | 88.9% | 110% | 100% |  |
| C[C@@H](C(=O)O)c1ccc(-c2ccccc2)c(F)c1 [Tarenflurbil] (3000 nM) | 113% | 94.4% | 88.8% | 115% | 79.5% | 93% |  |
| C[C@@H]1C[C@H]2[C@@H]3CCC4=CC(=O)C=C[C@]4(C)[C@@]3(F)[C@@H](O)C[C@]2(C)[C@@]1(O)C(=O)CO [Dexamethasone] (3000 nM) | 106% | 93.3% | 115% | 100% | 78.2% | 112% |  |
| NC1(c2ccc(-c3nc4ccn5c(=O)[nH]nc5c4cc3-c3ccccc3)cc2)CCC1 [MK-2206] (300 nM) | 98.8% | 91.3% | 82.9% | 100% | 73% | 77.5% |  |
| Cc1cc2c(F)c(Oc3ncnn4cc(OC[C@@H](C)O)c(C)c34)ccc2[nH]1 [Brivanib] (300 nM) | 93.6% | 98.5% | 89.8% | 98.9% | 99.1% | 113% |  |
| C[C@@H]1C[C@H]2[C@@H]3CCC4=CC(=O)C=C[C@]4(C)[C@@]3(F)[C@@H](O)C[C@]2(C)[C@@]1(O)C(=O)CO [Dexamethasone] (300 nM) |  |  |  |  |  |  | normalised viability (CAL-51 [7]): 99.4%; normalised viability (CAL-148 [8]): 105%; normalised viability (CAL-85-1 [9]): 99.3%; normalised viability (DU-4475 [10]): 99%; normalised viability (MDA-MB-453 [11]): 73.7%; normalised viability (HDQ-P1 [12]): 69.5% |
| CO[C@H](C(=O)[C@@H](O)[C@@H](C)O)[C@@H]1Cc2cc3cc(O[C@H]4C[C@@H](O[C@@H]5C[C@@H](O)[C@H](O)[C@@H](C)O5)[C@H](O)[C@@H](C)O4)c(C)c(O)c3c(O)c2C(=O)[C@H]1O[C@H]1C[C@@H](O[C@@H]2C[C@@H](O)[C@@H](O[C@@H]3C[C@](C)(O)[C@H](O)[C@@H](C)O3)[C@@H](C)O2)[C@H](O)[C@@H](C)O1 [Plicamycin] (3000 nM) | 3.09% and 4.26% | 5.24% and 3.76% | 5.82% and 5.38% | 2.08% and 0.69% | 7% and 7.5% | 23.8% and 15.9% |  |
| CC(C)C(=O)Nc1ccc([N+](=O)[O-])c(C(F)(F)F)c1 [Flutamide] (3000 nM) | 110% | 104% | 94.9% | 93.2% | 120% | 98.8% |  |
| N[C@@H](Cc1ccc(N(CCCl)CCCl)cc1)C(=O)O [Melphalan] (99 nM) |  |  |  |  |  |  | normalised viability (CAL-51 [13]): 109%; normalised viability (CAL-148 [14]): 106%; normalised viability (CAL-85-1 [15]): 79.4%; normalised viability (DU-4475 [16]): 86.2%; normalised viability (MDA-MB-453 [17]): 101%; normalised viability (HDQ-P1 [18]): 100% |
| CN1CCN(c2nc(C3=C(c4c[nH]c5ccccc45)C(=O)NC3=O)c3ccccc3n2)CC1 [Sotrastaurin] (300 nM) |  |  |  |  |  |  | normalised viability (CAL-51 [7]): 87%; normalised viability (CAL-148 [8]): 120%; normalised viability (CAL-85-1 [9]): 117%; normalised viability (DU-4475 [10]): 99.9%; normalised viability (MDA-MB-453 [11]): 96.2%; normalised viability (HDQ-P1 [12]): 56.9% |
| Cc1c(C(=O)Nc2ccc(N3C[C@@H](C)O[C@@H](C)C3)nc2)cccc1-c1ccc(OC(F)(F)F)cc1 [NVP-LDE225] (1000 nM) |  |  |  |  |  |  | normalised viability (CAL-51 [13]): 99.5%; normalised viability (CAL-148 [14]): 107%; normalised viability (CAL-85-1 [15]): 98.8%; normalised viability (DU-4475 [16]): 118%; normalised viability (MDA-MB-453 [17]): 92.9%; normalised viability (HDQ-P1 [18]): 90.1% |
| Cc1c(C(=O)Nc2ccc(N3C[C@@H](C)O[C@@H](C)C3)nc2)cccc1-c1ccc(OC(F)(F)F)cc1 [NVP-LDE225] (300 nM) |  |  |  |  |  |  | normalised viability (CAL-51 [7]): 105%; normalised viability (CAL-148 [8]): 95.2%; normalised viability (CAL-85-1 [9]): 108%; normalised viability (DU-4475 [10]): 101%; normalised viability (MDA-MB-453 [11]): 88.1%; normalised viability (HDQ-P1 [12]): 36.5% |
| C[C@@H](CN1CC(=O)NC(=O)C1)N1CC(=O)NC(=O)C1 [Dexrazoxane] (300 nM) |  |  |  |  |  |  | normalised viability (CAL-51 [7]): 95%; normalised viability (CAL-148 [8]): 83.5%; normalised viability (CAL-85-1 [9]): 95.4%; normalised viability (DU-4475 [10]): 108%; normalised viability (MDA-MB-453 [11]): 97.6%; normalised viability (HDQ-P1 [12]): 82.2% |
